One assay addresses adenosine A2B receptor (Homo sapiens (Human), UniProt P29275). Briefly: Adenosine receptor activity assay (Table 1), A2B activity. The format is biochemical. The settings on record: for Ratio: A2A activity to the A2B activity, A2A/A2B; for IC50: read-out: Ave A2B cAMP IC50.
For the next assay, the target named is adenosine A2A receptor (Homo sapiens (Human), UniProt P29274). In words: Adenosine receptor activity assay (Table 1), A2A activity. The settings on record: read-out: Ave A2A cAMP IC50. The format is biochemical.
Chain of adenosine A2A receptor (P29274 whole entry): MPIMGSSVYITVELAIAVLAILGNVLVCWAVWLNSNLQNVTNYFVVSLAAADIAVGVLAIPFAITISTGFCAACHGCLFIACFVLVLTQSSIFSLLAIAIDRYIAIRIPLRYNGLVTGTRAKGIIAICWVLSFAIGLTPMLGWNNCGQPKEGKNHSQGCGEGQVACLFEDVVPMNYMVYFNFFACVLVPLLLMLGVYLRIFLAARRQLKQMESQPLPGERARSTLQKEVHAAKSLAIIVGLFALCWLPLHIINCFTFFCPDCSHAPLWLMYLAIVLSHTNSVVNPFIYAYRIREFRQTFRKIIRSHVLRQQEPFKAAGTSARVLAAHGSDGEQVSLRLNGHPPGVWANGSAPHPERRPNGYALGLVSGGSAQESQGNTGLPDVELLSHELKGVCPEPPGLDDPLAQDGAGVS

The structures appear in SMILES notation.

One may read the IC50 as the concentration that gives 50% inhibition.

Chain of adenosine A2B receptor (P29275 whole entry): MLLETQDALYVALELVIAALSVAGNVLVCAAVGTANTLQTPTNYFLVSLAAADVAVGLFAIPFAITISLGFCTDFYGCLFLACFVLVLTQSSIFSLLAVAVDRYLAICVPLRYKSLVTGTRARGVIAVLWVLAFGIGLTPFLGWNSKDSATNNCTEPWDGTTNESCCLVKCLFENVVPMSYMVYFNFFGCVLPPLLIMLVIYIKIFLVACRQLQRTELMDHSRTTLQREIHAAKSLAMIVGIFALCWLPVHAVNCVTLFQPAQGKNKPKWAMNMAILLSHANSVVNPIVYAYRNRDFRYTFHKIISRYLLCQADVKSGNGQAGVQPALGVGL

On to `CCOc1ccc(CNc2nc(C(=O)NCCc3cccc(O)c3)c3sccc3n2)cn1` [Example Z439, 2-(((6-Ethoxypyridin-3-yl)methyl)amino)-N-(3-hydroxyphenethyl)thieno[3,2-d]pyrimidine-4-carboxamide], for which, at adenosine A2B receptor, the Ratio was 0.29 and the IC50 is over 500 nM. At adenosine A2A receptor, the IC50 lay within 100 to 500 nM.

Turning to `CO[C@H]1CCN(C(=O)c2nc(N[C@@H](C)c3ccccn3)nc3c(C)csc23)C1` [Example Z440, ((S)-3-Methoxypyrrolidin-1-yl)(7-methyl-2-(((S)-1-(pyridin-2-yl)ethyl)amino)thieno[3,2-d]pyrimidin-4-yl)methanone], the Ratio on adenosine A2B receptor stood at 1.91. Further, the IC50 at adenosine A2B receptor and on adenosine A2A receptor was 100 to 500 nM throughout.

For `CO[C@@H]1CCN(C(=O)c2nc(N[C@@H](C)c3ccccn3)nc3c(C)csc23)C1` [Example Z441, ((R)-3-Methoxypyrrolidin-1-yl)(7-methyl-2-(((S)-1-(pyridin-2-yl)ethyl)amino)thieno[3,2-d]pyrimidin-4-yl)methanone], on adenosine A2B receptor, the Ratio worked out at 1.21 and the 50% inhibitory concentration (IC50) lay within 10 to 50 nM. Further, the IC50 on adenosine A2A receptor lay in the range of 10 to 50 nM.

As to `CCO[C@H]1CCN(C(=O)c2nc(N[C@@H](C)c3ccccn3)nc3ccsc23)C1` [Example Z442, ((S)-3-Ethoxypyrrolidin-1-yl)(2-(((S)-1-(pyridin-2-yl)ethyl)amino)thieno[3,2-d]pyrimidin-4-yl)methanone], on adenosine A2B receptor, the Ratio is 2.19 and the IC50 lay in the range of 100 to 500 nM. Besides, the 50% inhibitory concentration (IC50) at adenosine A2A receptor lay within 100 to 500 nM.

With `Cc1csc2c(C(=O)NCc3ccccc3)nc(N[C@@H](C)c3ccccn3)nc12` [Example Z443, (S)—N-Benzyl-7-methyl-2-((1-(pyridin-2-yl)ethyl)amino)thieno[3,2-d]pyrimidine-4-carboxamide], at adenosine A2B receptor, the Ratio was determined as 0.44 and the half-maximal inhibitory concentration (IC50) fell in the range of 50 to 100 nM. Also, the IC50 on adenosine A2A receptor was 10 to 50 nM.

`COc1cccc(CCNC(=O)c2nc(N[C@@H](C)c3ccccn3)nc3c(C)csc23)c1` [Example Z444, (S)—N-(3-Methoxyphenethyl)-7-methyl-2-((1-(pyridin-2-yl)ethyl)amino)thieno[3,2-d]pyrimidine-4-carboxamide]: at adenosine A2B receptor, the Ratio was 0.35 and the IC50 lay in the range of 100 to 500 nM. Moreover, the IC50 on adenosine A2A receptor was 50 to 100 nM.

Regarding `C[C@H](Nc1nc(C(=O)NCCc2cccc(C#N)c2)c2sccc2n1)c1cncc(F)c1` [Example Z445, (S)—N-(3-Cyanophenethyl)-2-((1-(5-fluoropyridin-3-yl)ethyl)amino)thieno[3,2-d]pyrimidine-4-carboxamide], at adenosine A2B receptor, the Ratio was 9.62 and the half-inhibitory concentration (IC50) fell in the range of 50 to 100 nM. In addition, the IC50 on adenosine A2A receptor was over 500 nM.

In the case of `C[C@H](Nc1nc(C(=O)NCC2CCN(CCc3ccccc3)CC2)c2sccc2n1)c1ccccn1` [Example Z446, (S)—N-((1-Phenethylpiperidin-4-yl)methyl)-2-((1-(pyridin-2-yl)ethyl)amino)thieno[3,2-d]pyrimidine-4-carboxamide], the Ratio at adenosine A2B receptor was determined as 0.56. For the same molecule, the half-inhibitory concentration (IC50) at adenosine A2B receptor and at adenosine A2A receptor was over 500 nM throughout.

On to `Cc1csc2c(C(=O)NCCc3cccc(O)c3)nc(N[C@@H](C)c3ccccn3)nc12` [Example Z447, (S)—N-(3-Hydroxyphenethyl)-7-methyl-2-((1-(pyridin-2-yl)ethyl)amino)thieno[3,2-d]pyrimidine-4-carboxamide], for which, at adenosine A2B receptor, the Ratio came out at 1.23 and the IC50 fell in the range of 50 to 100 nM. Moreover, the half-maximal inhibitory concentration (IC50) at adenosine A2A receptor lay in the range of 50 to 100 nM.

Regarding `COc1ncccc1CNC(=O)c1nc(N[C@@H](C)c2ccccn2)nc2ccsc12` [Example Z449, (S)—N-((2-Methoxypyridin-3-yl)methyl)-2-((1-(pyridin-2-yl)ethyl)amino)thieno[3,2-d]pyrimidine-4-carboxamide], at adenosine A2B receptor, the Ratio amounted to 0.91 and the IC50 was over 500 nM. The IC50 on adenosine A2A receptor was over 500 nM.

Take `C[C@H](Nc1nc(C(=O)NCCc2ccc(C(=O)O)cc2)c2sccc2n1)c1cncc(F)c1` [Example Z452, (S)-4-(2-(2-((1-(5-Fluoropyridin-3-yl)ethyl)amino)thieno[3,2-d]pyrimidine-4-carboxamido)ethyl)benzoic acid]: the Ratio on adenosine A2B receptor is 19.85. Further, the IC50 is 100 to 500 nM at adenosine A2B receptor and over 500 nM at adenosine A2A receptor.

As to `CCOc1ccc(CNc2nc(C(=O)N3CCC3)c3sccc3n2)cn1` [Example Z453, Azetidin-1-yl(2-(((6-ethoxypyridin-3-yl)methyl)amino)thieno[3,2-d]pyrimidin-4-yl)methanone], on adenosine A2B receptor, the Ratio came to 0.43 and the IC50 was in the range of 100 to 500 nM. Moreover, at adenosine A2A receptor, the 50% inhibitory concentration (IC50) is 100 to 500 nM.

In the case of `C[C@H](Nc1nc(C(=O)NCCc2ccc(S(N)(=O)=O)cc2)c2sccc2n1)c1cncc(F)c1` [Example Z454, (S)-2-((1-(5-Fluoropyridin-3-yl)ethyl)amino)-N-(4-sulfamoylphenethyl)thieno[3,2-d]pyrimidine-4-carboxamide], at adenosine A2B receptor, the Ratio was 38.75. The IC50 on adenosine A2B receptor is 10 to 50 nM; on adenosine A2A receptor it was over 500 nM.

Regarding `C[C@H](Nc1nc(C(=O)NCCc2ccc(S(C)(=O)=O)cc2)c2sccc2n1)c1cncc(F)c1` [Example Z455, (S)-2-((1-(5-Fluoropyridin-3-yl)ethyl)amino)-N-(4-(methylsulfonyl)phenethyl)thieno[3,2-d]pyrimidine-4-carboxamide], at adenosine A2B receptor, the Ratio is given as 3.91 and the IC50 was in the range of 100 to 500 nM. Moreover, on adenosine A2A receptor, the IC50 was over 500 nM.

Regarding `Cc1cc2nc(N[C@@H](C)c3cccnc3)nc(C(=O)NCc3ccccn3)c2s1` [Example Z457, (S)-6-Methyl-N-(pyridin-2-ylmethyl)-2-((1-(pyridin-3-yl)ethyl)amino)thieno[3,2-d]pyrimidine-4-carboxamide], at adenosine A2B receptor, the Ratio amounted to 2.73 and the half-maximal inhibitory concentration (IC50) lay within 50 to 100 nM. Besides, at adenosine A2A receptor, the IC50 lay in the range of 100 to 500 nM.

As for `CCNC(=O)c1nc(NCCc2ccc(O)cc2)nc2ccsc12` [Example Z460, N-Ethyl-2-((4-hydroxyphenethyl)amino)thieno[3,2-d]pyrimidine-4-carboxamide], the Ratio on adenosine A2B receptor was 0.84. For the same molecule, the IC50 on adenosine A2B receptor and at adenosine A2A receptor was 100 to 500 nM in each case.

On to `COc1ccc([C@H](C)Nc2nc(C(=O)NCc3ccccn3)c3sccc3n2)cc1` [Example Z466, (S)-2-((1-(4-Methoxyphenyl)ethyl)amino)-N-(pyridin-2-ylmethyl)thieno[3,2-d]pyrimidine-4-carboxamide], for which, at adenosine A2B receptor, the Ratio is listed as 0.05 and the IC50 is over 500 nM. For the same molecule, the IC50 at adenosine A2A receptor lay in the range of 10 to 50 nM.

For the molecule `COC[C@H]1CCN(C(=O)c2nc(N[C@@H](C)c3ccccn3)nc3ccsc23)C1` [Example Z470, ((S)-3-(Methoxymethyl)pyrrolidin-1-yl)(2-(((S)-1-(pyridin-2-yl)ethyl)amino)thieno[3,2-d]pyrimidin-4-yl)methanone], at adenosine A2B receptor, the Ratio worked out at 1.07. Moreover, the half-inhibitory concentration (IC50) fell in the range of 50 to 100 nM at adenosine A2B receptor and 100 to 500 nM at adenosine A2A receptor.

For `COC[C@@H]1CCN(C(=O)c2nc(N[C@@H](C)c3ccccn3)nc3ccsc23)C1` [Example Z471, ((R)-3-(Methoxymethyl)pyrrolidin-1-yl)(2-(((S)-1-(pyridin-2-yl)ethyl)amino)thieno[3,2-d]pyrimidin-4-yl)methanone], at adenosine A2B receptor, the Ratio was 7.81 and the IC50 fell in the range of 50 to 100 nM. At adenosine A2A receptor, the IC50 was in the range of 100 to 500 nM.

With `C[C@H](Nc1nc(C(=O)N2CC[C@H](NC(=O)OCc3ccccc3)C2)c2sccc2n1)c1cncc(F)c1` [Example Z472, Benzyl ((S)-1-(2-(((S)-1-(5-fluoropyridin-3-yl)ethyl)amino)thieno[3,2-d]pyrimidine-4-carbonyl)pyrrolidin-3-yl)carbamate], at adenosine A2B receptor, the Ratio was 8.61 and the concentration for half-maximal inhibition (IC50) was in the range of 10 to 50 nM. Besides, the half-inhibitory concentration (IC50) at adenosine A2A receptor is over 500 nM.

Consider `COc1ccc(CNC(=O)c2nc(N[C@@H](C)c3ccccn3)nc3ccsc23)cc1` [Example Z474, (S)—N-(4-Methoxybenzyl)-2-((1-(pyridin-2-yl)ethyl)amino)thieno[3,2-d]pyrimidine-4-carboxamide], for which, at adenosine A2B receptor, the Ratio is 0.80. Moreover, the concentration for half-maximal inhibition (IC50) at adenosine A2B receptor and at adenosine A2A receptor was 50 to 100 nM each time.

As to `C[C@H](Nc1nc(C(=O)NCCc2ccc(NC(=O)OC(C)(C)C)cc2)c2sccc2n1)c1cncc(F)c1` [Example Z482, tert-Butyl (S)-(4-(2-(2-((1-(5-fluoropyridin-3-yl)ethyl)amino)thieno[3,2-d]pyrimidine-4-carboxamido)ethyl)phenyl)carbamate], at adenosine A2B receptor, the Ratio was 5.32 and the concentration for half-maximal inhibition (IC50) lay in the range of 100 to 500 nM. Besides, the half-maximal inhibitory concentration (IC50) at adenosine A2A receptor was over 500 nM.

On to `Cc1cc2nc(N[C@@H](C)c3cncc(F)c3)nc(C(=O)N3CC(N(C)C(=O)OC(C)(C)C)C3)c2s1` [Example Z484, tert-Butyl (S)-(1-(2-((1-(5-fluoropyridin-3-yl)ethyl)amino)-6-methylthieno[3,2-d]pyrimidine-4-carbonyl)azetidin-3-yl)(methyl)carbamate], for which, on adenosine A2B receptor, the Ratio is recorded as 4.16 and the IC50 was 10 to 50 nM. Also, the half-inhibitory concentration (IC50) at adenosine A2A receptor was 100 to 500 nM.

Turning to `COC1(C)CN(C(=O)c2nc(N[C@@H](C)c3ccccn3)nc3ccsc23)C1` [Example Z486, (S)-(3-Methoxy-3-methylazetidin-1-yl)(2-((1-(pyridin-2-yl)ethyl)amino)thieno[3,2-d]pyrimidin-4-yl)methanone], on adenosine A2B receptor, the Ratio was 10.58 and the 50% inhibitory concentration (IC50) lay within 50 to 100 nM. Moreover, the IC50 on adenosine A2A receptor was over 500 nM.

As to `Cc1cc2nc(N[C@@H](C)c3cncc(F)c3)nc(C(=O)NCCC3CCN(C(=O)OC(C)(C)C)CC3)c2s1` [Example Z487, tert-Butyl (S)-4-(2-(2-((1-(5-fluoropyridin-3-yl)ethyl)amino)-6-methylthieno[3,2-d]pyrimidine-4-carboxamido)ethyl)piperidine-1-carboxylate], on adenosine A2B receptor, the Ratio is given as 6.54 and the IC50 was in the range of 100 to 500 nM. Besides, the IC50 on adenosine A2A receptor was over 500 nM.

For `C[C@H](Nc1nc(C(=O)NCCc2ccc(N)cc2)c2sccc2n1)c1cncc(F)c1` [Example Z493, (S)—N-(4-Aminophenethyl)-2-((1-(5-fluoropyridin-3-yl)ethyl)amino)thieno[3,2-d]pyrimidine-4-carboxamide], on adenosine A2B receptor, the Ratio turned out to be 17.90 and the half-inhibitory concentration (IC50) is 50 to 100 nM. The IC50 at adenosine A2A receptor was over 500 nM.

Source of the values: patent publication US11254686B1 (Corvus Pharmaceuticals, Inc., priority 2017, dated 2022).
